ChEMBL document CHEMBL1817634, “One-pot synthesis of pyrazoline derivatised carbazoles as antitubercular, anticancer agents, their DNA cleavage and antioxidant activities” (2011)
In brackets after ≈: the same amount, converted by molar mass. Activity calls are given as the source filed them. The rule behind the calls is not given here.

Tests used:
A549 [1] = assay: Anticancer activity against human A549 cells assessed as cell growth at 10 ug/mL by sulforhodamine B assay; type: functional; settings: read-out: Activity
A498 [2] = assay: Anticancer activity against human A498 cells assessed as cell growth at 20 ug/mL by sulforhodamine B assay; type: functional; settings: read-out: Activity
[3] = Antioxidant activity assessed as potassium ferric cyanide reducing power at 10 ug after 20 mins by spectrophotometry; type: functional
A549 [4] = assay: Anticancer activity against human A549 cells assessed as cell growth at 80 ug/mL by sulforhodamine B assay; type: functional; settings: read-out: Activity
A549 [5] = assay: Anticancer activity against human A549 cells assessed as cell growth at 40 ug/mL by sulforhodamine B assay; type: functional; settings: read-out: Activity
A498 [6] = assay: Cytotoxicity against human A498 cells; type: functional
Nucleic Acid = assay: Induction of Escherichia coli DNA cleavage at 100 ug after 2 hrs by agarose gel electrophoresis; type: nucleic-acid assay
A498 [7] = assay: Anticancer activity against human A498 cells assessed as cell growth at 40 ug/mL by sulforhodamine B assay; type: functional; settings: read-out: Activity
[8] = Antioxidant activity assessed as potassium ferric cyanide reducing power at 50 ug after 20 mins by spectrophotometry; type: functional
[9] = Antioxidant activity assessed as potassium ferric cyanide reducing power at 100 ug after 20 mins by spectrophotometry; type: functional
A498 [10] = assay: Anticancer activity against human A498 cells assessed as cell growth at 80 ug/mL by sulforhodamine B assay; type: functional; settings: read-out: Activity
A549 [11] = assay: Cytotoxicity against human A549 cells; type: functional
[12] = test system: Mycobacterium tuberculosis; assay: Antitubercular activity against Mycobacterium tuberculosis H37Rv after 3 weeks by turbidity assay; type: functional; settings: 504 h
A498 [13] = assay: Anticancer activity against human A498 cells assessed as cell growth at 10 ug/mL by sulforhodamine B assay; type: functional; settings: read-out: Activity
A549 [14] = assay: Anticancer activity against human A549 cells assessed as cell growth at 20 ug/mL by sulforhodamine B assay; type: functional; settings: read-out: Activity

| Structure (SMILES) | growth at 10 µg/mL (A549 [1]) | growth at 20 µg/mL (A498 [2]) | reducing power [3] | growth at 80 µg/mL (A549 [4]) | growth at 40 µg/mL (A549 [5]) | GI50 (A498 [6]) | LC50 (A498 [6]) | TGI (A498 [6]) | Activity (Nucleic Acid) | growth at 40 µg/mL (A498 [7]) | reducing power [8] | reducing power [9] | growth at 80 µg/mL (A498 [10]) | GI50 (A549 [11]) | LC50 (A549 [11]) | TGI (A549 [11]) | MIC [12] | growth at 10 µg/mL (A498 [13]) | growth at 20 µg/mL (A549 [14]) |
| --- | --- | --- | --- | --- | --- | --- | --- | --- | --- | --- | --- | --- | --- | --- | --- | --- | --- | --- | --- |
| Clc1cccc(C2CC(c3ccc4[nH]c5c(c4c3)CCCC5)=NN2)c1 (stereo not given) | 81.6% | 100% | 0.015 absorbance | 15.3% | 69.4% | 74.3 mg/L (≈ 212 µM) | > 80 mg/L | > 80 mg/L | inactive | 97.9% | 0.066 absorbance | 0.147 absorbance | 33.5% | 49.8 mg/L (≈ 142 µM) | > 80 mg/L | > 80 mg/L | 4.5 mg/L (≈ 12.9 µM) | 100% | 76.2% |
| COc1ccc(C2CC(c3ccc4[nH]c5c(c4c3)CCCC5)=NN2)cc1 (stereo not given) | 81.6% | 100% | 0.193 absorbance | 15.3% | 69.4% | 55 mg/L (≈ 159 µM) | > 80 mg/L | > 80 mg/L | inactive | 97.7% | 0.473 absorbance | 0.673 absorbance | 4.2% | 56.2 mg/L (≈ 163 µM) | > 80 mg/L | > 80 mg/L | 10 mg/L (≈ 28.9 µM) | 98.3% | 76.2% |
| NC(=O)c1cnccn1 [PYRAZINAMIDE] |  |  |  |  |  |  |  |  |  |  |  |  |  |  |  |  | 10 mg/L (≈ 81.2 µM) |  |  |
| C(=C\C1CC(c2ccc3[nH]c4c(c3c2)CCCC4)=NN1)/c1ccccc1 (stereo not given) | 98.8% | 99.7% | 0.19 absorbance | 48.7% | 88.4% | 57 mg/L (≈ 167 µM) | > 80 mg/L | > 80 mg/L | inactive | 95.7% | 0.47 absorbance | 0.67 absorbance | 6% | 54 mg/L (≈ 158 µM) | > 80 mg/L | > 80 mg/L | 25 mg/L (≈ 73.2 µM) | 99.5% | 94.8% |
| O=[N+]([O-])c1ccc(C2CC(c3ccc4[nH]c5c(c4c3)CCCC5)=NN2)cc1 (stereo not given) | 70.1% | 100% | 0.195 absorbance | 4.2% | 50.4% | 56.2 mg/L (≈ 156 µM) | > 80 mg/L | > 80 mg/L | Active | 97.7% | 0.475 absorbance | 0.675 absorbance | 4.1% | 38.2 mg/L (≈ 106 µM) | > 80 mg/L | > 80 mg/L | 10 mg/L (≈ 27.7 µM) | 100% | 64.4% |
| CC1CC(c2ccc3[nH]c4c(c3c2)CCCC4)=NN1 (stereo not given) | 90.2% | 82% | 0.02 absorbance | 12.1% | 75.7% | 55.2 mg/L (≈ 218 µM) | > 70 mg/L | > 70 mg/L | inactive | 85% | 0.105 absorbance | 0.13 absorbance | 4% | 52.5 mg/L (≈ 207 µM) | > 70 mg/L | > 70 mg/L | 3.5 mg/L (≈ 13.8 µM) | 80% | 81.6% |
| Clc1ccc(C2CC(c3ccc4[nH]c5c(c4c3)CCCC5)=NN2)cc1 (stereo not given) | 83.2% | 100% | 0.011 absorbance | 11.5% | 67.1% | 72.7 mg/L (≈ 208 µM) | > 80 mg/L | > 80 mg/L | Active | 97.5% | 0.191 absorbance | 0.303 absorbance | 31.7% | 47.6 mg/L (≈ 136 µM) | > 80 mg/L | > 80 mg/L | 3.5 mg/L (≈ 10 µM) | 100% | 74.6% |
